Measurements as given in patent US20240043440A1, “COMPOSITIONS AND METHODS OF MODULATING SHORT-CHAIN DEHYDROGENASE ACTIVITY” (CASE WESTERN RESERVE UNIVERSITY, priority 2017, published 2024).
pEC50: −log10 of the molar value.

Molecular target: recombinant 15-PGDH (Homo sapiens (Human), UniProt P15428)
Assay: inhibition of enzymatic activity of recombinant 15-PGDH, in vitro assay
Type: biochemical
Conditions: Enzyme Inhibitor IC50 (nM) at 1 nM 15-PGDH, 1 nM recombinant 15-PGDH
From the text: This Example provides data on a group of structural analogues of SW033291. Data provided is the IC50 of each compound for inhibiting enzymatic activity of recombinant 15-PGDH in an in vitro assay. Recombinant 15-PGDH is human unless otherwise specified. Additionally, the example provides aqueous solubility data for selected analogues in pH 7 or pH 4 citrate buffer solution.

Chain of recombinant 15-PGDH (P15428 whole entry): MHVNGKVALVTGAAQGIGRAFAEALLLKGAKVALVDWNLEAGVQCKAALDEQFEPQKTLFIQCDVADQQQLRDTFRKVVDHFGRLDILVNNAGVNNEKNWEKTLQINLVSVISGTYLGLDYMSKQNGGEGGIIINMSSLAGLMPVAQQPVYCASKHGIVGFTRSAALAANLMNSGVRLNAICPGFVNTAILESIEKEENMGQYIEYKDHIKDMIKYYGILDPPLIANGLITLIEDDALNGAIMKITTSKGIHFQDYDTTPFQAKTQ

In order of falling IC50:
1. CCCC[S+]([O-])c1sc2nc(-c3cccnc3)nc(-c3ccccc3)c2c1N (single isomer, unassigned) [74B, 6-(butylsulfinyl)-4-phenyl-2-(pyridin-3-yl)thieno[2,3-d]pyrimidin-5-amine]  28 nM
2. CCCC[S+]([O-])c1sc2nc(-c3cccnc3)nc(-c3ccccc3)c2c1N (single isomer, unassigned) [74A, 6-(butylsulfinyl)-4-phenyl-2-(pyridin-3-yl)thieno[2,3-d]pyrimidin-5-amine]  0.52 nM

Same assay, conditions: Enzyme Inhibitor IC50 (nM) at 5 nM 15-PGDH, 5 nM recombinant 15-PGDH

`CCCC[S+]([O-])c1sc2nc(C3CC3)cc(-c3ccccc3)c2c1N` (centres unmarked) [compound 25] and `CCCC[S+]([O-])c1sc2nc(-c3ccc(OC)nc3)cc(-c3ccccc3)c2c1N` (centres unmarked) [compound 23] fall in the same range of IC50: 4 to 20 nM for the first, 4 to 20 nM for the second.

Same assay, conditions: read-out: Enzyme Inhibitor IC50 (nM) at 1 nM 15-PGDH; 1 nM recombinant 15-PGDH

Going from `CCCC[S@+]([O-])c1sc2nc(-c3cccnc3)cc(-c3cccnc3)c2c1N` [54B] to `CCCC[S@@+]([O-])c1sc2nc(-c3cccnc3)cc(-c3cccnc3)c2c1N` [54A], the IC50 falls from greater than 100 nM to 0.45 nM. The second is the more potent here.

First: CCCC[S@@+]([O-])c1sc2nc(-c3cccnc3)cc(-c3cncn3C)c2c1N [43A]
Second: CCCC[S@+]([O-])c1sc2nc(-c3cccnc3)cc(-c3cncn3C)c2c1N [43B]
The IC50 of the first is lower: 0.58 nM for the first, greater than 100 nM for the second.

First: CCCC[S@+]([O-])c1sc2nc(-c3cnc(N)nc3)cc(-c3ccccc3)c2c1N [64B]
Second: CCCC[S@@+]([O-])c1sc2nc(-c3cnc(N)nc3)cc(-c3ccccc3)c2c1N [64A]
The IC50 of the first is higher: greater than 100 nM for the first, 0.36 nM for the second.

Compared with `CCCC[S@+]([O-])c1sc2nc(-c3ccc(N)nc3)cc(-c3ccccc3)c2c1N` [62B], `CCCC[S@@+]([O-])c1sc2nc(-c3ccc(N)nc3)cc(-c3ccccc3)c2c1N` [62A] is 110-fold lower in IC50: 64 nM for the first, 0.56 nM for the second. The second is the more potent here.

Compared with `CCCC[S@+]([O-])c1sc2nc(-c3cccnc3)cc(-c3cnc(C)n3C)c2c1N` [38B], `CCCC[S@@+]([O-])c1sc2nc(-c3cccnc3)cc(-c3cnc(C)n3C)c2c1N` [38A] is 36-fold lower in IC50: 27 nM for the first, 0.76 nM for the second.

Compared with `COCCC[S@+]([O-])c1sc2nc(-c3cccnc3)cc(-c3cncn3C)c2c1N` [50B], `COCCC[S@@+]([O-])c1sc2nc(-c3cccnc3)cc(-c3cncn3C)c2c1N` [50A] is lower in IC50: greater than 100 nM for the first, 0.57 nM for the second. The second is the more potent here.

First: CCCC[S@@+]([O-])c1sc2nc(-c3nccs3)cc(-c3cn(C)cn3)c2c1N [48A]
Second: CCCC[S@+]([O-])c1sc2nc(-c3nccs3)cc(-c3cn(C)cn3)c2c1N [48B]
The IC50 of the first is lower: 0.72 nM for the first, greater than 100 nM for the second.

First: COCCC[S@@+]([O-])c1sc2nc(-c3cccnc3)cc(-c3ccccc3)c2c1N [68A]
Second: COCCC[S@+]([O-])c1sc2nc(-c3cccnc3)cc(-c3ccccc3)c2c1N [68B]
The IC50 of the first is lower: 0.48 nM for the first, greater than 100 nM for the second.

Going from `CCCC[S@+]([O-])c1sc2nc(-c3cccnc3)cc(-c3ccccc3)c2c1N` [41B] to `CCCC[S@@+]([O-])c1sc2nc(-c3cccnc3)cc(-c3ccccc3)c2c1N` [41A], the IC50 falls from 27 nM to 0.73 nM (37-fold). The second is the more potent here.

First: CCCC[S@+]([O-])c1sc2nc(-c3cnn(C)c3)cc(-c3ccccc3)c2c1N [46B]
Second: CCCC[S@@+]([O-])c1sc2nc(-c3cnn(C)c3)cc(-c3ccccc3)c2c1N [46A]
The IC50 of the first is higher: greater than 100 nM for the first, 0.7 nM for the second. The second is the more potent here.

Going from `CCCC[S@+]([O-])c1sc2nc(-c3cnc(NC)nc3)cc(-c3ccccc3)c2c1N` [60B] to `CCCC[S@@+]([O-])c1sc2nc(-c3cnc(NC)nc3)cc(-c3ccccc3)c2c1N` [60A], the IC50 falls from 41 nM to 0.5 nM (82-fold). The second is the more potent here.

Going from `COCCC[S@@+]([O-])c1sc2nc(-c3cnc(N)nc3)cc(-c3ccccc3)c2c1N` [65A] to `COCCC[S@+]([O-])c1sc2nc(-c3cnc(N)nc3)cc(-c3ccccc3)c2c1N` [65B], the IC50 rises from 0.59 nM to 30 nM (51-fold).

Compared with `CCCC[S@@+]([O-])c1sc2nc(-c3ccncn3)cc(-c3ccccc3)c2c1N` [47A], `CCCC[S@+]([O-])c1sc2nc(-c3ccncn3)cc(-c3ccccc3)c2c1N` [47B] is 120-fold higher in IC50: 0.65 nM for the first, 79 nM for the second.

First: CCCC[S@@+]([O-])c1sc2nc(-c3cncnc3)cc(-c3ccccc3)c2c1N [42B]
Second: CCCC[S@+]([O-])c1sc2nc(-c3cncnc3)cc(-c3ccccc3)c2c1N [42A]
The IC50 of the first is 51-fold lower: 0.59 nM for the first, 30 nM for the second. The first is the more potent here.

First: CCCC[S@+]([O-])c1sc2nc(-c3cnc(N)nc3)cc(-c3ccc(F)cc3)c2c1N [61B]
Second: CCCC[S@@+]([O-])c1sc2nc(-c3cnc(N)nc3)cc(-c3ccc(F)cc3)c2c1N [61A]
The IC50 of the first is 55-fold higher: 24 nM for the first, 0.44 nM for the second. The second is the more potent here.

Going from `CCCC[S@@+]([O-])c1sc2nc(-c3cccnc3)cc(-c3ccccn3)c2c1N` [58A] to `CCCC[S@+]([O-])c1sc2nc(-c3cccnc3)cc(-c3ccccn3)c2c1N` [58B], the IC50 falls from 0.55 nM to 0.13 nM (4.2-fold).

Going from `CCCC[S@@+]([O-])c1sc2nc(-c3cccnc3)cc(-c3cnc(C4CC4)n3C)c2c1N` [52A, (R)-2-(butylsulfinyl)-4-(2-cylcopropyl-1-methyl-1H-imidazol-5-yl)-6-(pyridine-3-yl)thieno[2,3-b]pyridine-3-amine] to `CCCC[S@+]([O-])c1sc2nc(-c3cccnc3)cc(-c3nnc(C4CC4)n3C)c2c1N` [52B], the IC50 rises from 0.75 nM to greater than 100 nM.

Going from `CCCC[S@+]([O-])c1sc2nc(-c3cncnc3)cc(-c3cnc(C)n3C)c2c1N` [39B] to `CCCC[S@@+]([O-])c1sc2nc(-c3cncnc3)cc(-c3cnc(C)n3C)c2c1N` [39A], the IC50 falls from greater than 100 nM to 0.72 nM.

Compared with `COCCC[S@@+]([O-])c1sc2nc(-c3cccnc3)cc(-c3cn(C)cn3)c2c1N` [89A], `COCCC[S@+]([O-])c1sc2nc(-c3cccnc3)cc(-c3cn(C)cn3)c2c1N` [89B] is 96-fold higher in IC50: 0.77 nM for the first, 74 nM for the second.

Same assay, conditions: read-out: Enzyme Inhibitor IC50 (nM) at 5 nM 15-PGDH; 5 nM recombinant 15-PGDH

First: CCCC[S+]([O-])c1sc2nc(-c3nccs3)cc3c4c(nc1c23)NC=NC=4 (centres unmarked) [compound 7, 5-(butylsulfinyl)-2-(thiazol-2-yl)-7H-pyrimido[4,5-c]thieno[2,3,4-ij][2,7]naphthyridine]
Second: CCCC[S+]([O-])c1sc2nc(-c3nccs3)cc3c2c1Nc1ncncc1-3 (centres unmarked) [compound 6, 5-(butylsulfinyl)-2-(thiazol-2-yl)-6H-pyrimido[4,5-c]thieno[2,3,4-ij][2,7]naphthyridine]
The IC50 of the first is 1.5-fold higher: 132 nM for the first, 86 nM for the second. The second is the more potent here.

First: CCCC[S+]([O-])c1sc2nc(-c3nccs3)cc(-c3cn(C)c(C)n3)c2c1N (centres unmarked) [compound 2, 2-(butylsulfinyl)-4-(1,2-dimethyl-1H-imidazol-4-yl)-6-(thiazol-2-yl)thieno[2,3-b]pyridin-3-amine]
Second: CCCC[S@+]([O-])c1sc2nc(-c3nccs3)cc(-c3cn(C)c(C)n3)c2c1N (stereo in doubt) [compound 3, 2-(butylsulfinyl)-4-(1,2-dimethyl-1H-imidazol-4-yl)-6-(thiazol-2-yl)thieno[2,3-b]pyridin-3-amine]
The IC50 of the first is lower: 2.3 nM for the first, greater than 500 nM for the second.

`CCCC[S@@+]([O-])c1sc2nc(-c3nccs3)cc(-c3cn(C)c(C)n3)c2c1N` (stereo in doubt) [compound 4, 2-(butylsulfinyl)-4-(1,2-dimethyl-1H-imidazol-4-yl)-6-(thiazol-2-yl)thieno[2,3-b]pyridin-3-amine] gave an IC50 of 1.4 nM.

Tested on: IL1-β treated A549 cells
Assay: induction of PGE2 from IL1-β treated A549 cells
Type: cell-based
Conditions: Homo sapiens; A549 cells stimulated with IL1-β for 24 hours

Work on `CCCC[S+]([O-])c1sc2nc(-c3cnc(N)nc3)cc(-c3ccccc3)c2c1N` (centres unmarked) yielded a pEC50 greater than 8.40.

Tested on: not listed separately
Assay: metabolic stability in mouse liver microsomes
Type: in vitro ADME
Conditions: LC-MS, FIGS. 2 and 3
Procedure: The metabolic stability was determined by incubating the compounds at a concentration of 10 μM in the presence of microsomes derived from mouse livers. Compound concentrations were monitored by HPLC/MS over time, and half-lives were calculated from the slope of the best-fit line for Ln[compound] vs time.
Metabolite M8 is a thioamide resulting from oxidative cleavage of the thiazole ring. By contrast, 6 membered ring heteroaryls cannot form this metabolite or the toxic byproducts.

With `CCCC[S+]([O-])c1sc2nc(-c3nccs3)cc(-c3cnc(C)n3C)c2c1N` (centres unmarked) [2-(butylsulfinyl)-4-(1,2-dimethyl-1H-imidazol-5-yl)-6-(thiazol-2-yl)thieno[2,3-b]pyridin-3-amine] the “metabolites formed on incubation with mouse liver microsomes” value was “formation of metabolites derived from oxidation of the thiazole”.

Tested on: not listed separately
Assay: chemical stability of the isolated product
Type: physicochemical
Conditions: cyclizes completely during 10 days to Examples 6 and 7
From the text: Rather, it cyclized and oxidized as described below.
The desired product 2-(butylsulfinyl)-4-(pyrimidin-5-yl)-6-(thiazol-2-yl)thieno[2,3-b]pyridin-3-amine (Example 5-4) is unstable and cyclizes completely during 10 days to Example 6, (5-(butylsulfinyl)-2-(thiazol-2-yl)-6H-pyrimido[4,5-c]thieno[2,3,4-ij][2,7]naphthyridine) and Example 7, (5-(butylsulfinyl)-2-(thiazol-2-yl)-7H-pyrimido[4,5-c]thieno[2,3,4-ij][2,7]naphthyridine) with Example 6 being the major product. The cyclized products are separable on preparative HPLC: 21.2×250 mm Kinetex 5 μm EVO C18 100 Å reversed phase column using a 2:1 ratio of water to CH3CN with a 10 mL/min flow rate and 100 μL injection volume.

In the case of `CCCC[S+]([O-])c1sc2nc(-c3nccs3)cc(-c3cncnc3)c2c1N` (centres unmarked) [Example 5-4, 2-(butylsulfinyl)-4-(pyrimidin-5-yl)-6-(thiazol-2-yl)thieno[2,3-b]pyridin-3-amine], the “stability of the compound” value was “unstable”.
